The results in this text go back to PubChem BioAssay (NCI).

What all share (experiment): DTP human tumour cell line panel, 48 h
In assay [1] the test system is NCI/ADR-RES ovarian.
Assay [2] concerns KM12 colon.
For assay [3], the system named is RXF 393 renal.
The subject of assay [4] is SF-295 CNS.
Assay [5] has as its system SNB-19 CNS.
Assay [6] concerns BT-549 breast.
In assay [7] the test system is HL-60(TB) leukemia.
In assay [8] the test system is UACC-257 melanoma.
Assay [9] relates to RPMI-8226 leukemia.
The subject of assay [10] is SF-539 CNS.

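Each compound was tested at five concentrations against cells in 96-well plates for 48 hours. At the GI50, growth is halved. TGI marks complete inhibition of growth.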

`CC[C@H]1CCC/C=C/[C@@H]2C[C@H](O)C[C@H]2[C@H](O)/C=C/C(=O)O1`: the GI50 in [1] was 0.0379 µM; in [2], 0.0227 µM; in [3] it was 0.016 µM; in assay [4], 0.0545 µM; in [5], 0.0607 µM; in assay [6] it was 0.0549 µM. The GI50 in [7] was 0.0669 µM; in assay [8], 0.0802 µM; in assay [9], 0.0387 µM; in assay [10] it was 0.06 µM. In addition, the TGI in [1] is > 45.3 µM; in assay [2], 0.0523 µM; in assay [3], 0.0379 µM; in assay [4], > 100 µM; in [5], > 100 µM; in assay [6], > 100 µM. For the same compound, the concentration for total growth inhibition (TGI) was 0.473 µM in [7], > 100 µM in assay [8], 12.5 µM in [9] and > 100 µM in [10].

For `CC1(C)CCc2c(c(N=Nc3ccccc3F)c3ccccc3c2O)O1`, the GI50 in assay [1] is 20.1 µM; in [2], 23 µM; in [3], 79 µM; in assay [4] it was 17.8 µM; in assay [5], 36.8 µM; in [6], 33.5 µM. The GI50 is > 100 µM in assay [7], > 100 µM in [8], > 100 µM in assay [9] and 21.2 µM in assay [10]. Also, the TGI was 47.1 µM in assay [1]; 65.1 µM in [2]; > 100 µM in assay [3]; 44 µM in assay [4]; > 100 µM in [5]; > 100 µM in assay [6]. Besides, the concentration for total growth inhibition (TGI) is > 100 µM in [7], > 100 µM in [8], > 100 µM in [9] and 40.4 µM in assay [10].

Regarding `CCCCC(OC(=O)c1ccc(N)cc1)C(=O)Nc1nc(CC(=O)OCC)cs1` (stereo not given), the GI50 is 33.9 µM in assay [1]; 41.4 µM in assay [2]; 38.1 µM in [3]; 32.3 µM in assay [4]; 49.9 µM in [5]; 34.5 µM in [6]. The GI50 in [7] was 35.1 µM; in [8] it was 42.8 µM; in assay [9], 26.7 µM; in assay [10], 33.1 µM. The TGI in [1], in [2], in assay [3], in [4], in assay [5] and in assay [6] was > 100 µM each time. Also, the TGI in [7] is 95.1 µM; in assay [8] it was > 100 µM; in assay [9], > 100 µM; in assay [10] it was > 100 µM.

`CCOC(=O)c1c2c(n3ccc(NC(=O)CCN4CCCCC4)cc13)C(=O)c1ncccc1C2=O`: the GI50 is 1.14 µM in assay [1]; 1.22 µM in [2]; 0.256 µM in [3]; 0.121 µM in assay [4]; 1.06 µM in assay [5]; 4.1 µM in assay [6]. For the same compound, the GI50 was 1.46 µM in assay [7], 2.45 µM in assay [8], 1.41 µM in assay [9] and 0.292 µM in assay [10]. Moreover, the TGI was 3.66 µM in assay [1]; 2.76 µM in assay [2]; 2.4 µM in assay [3]; 1.92 µM in [4]; 3.21 µM in assay [5]; 21.4 µM in assay [6]. The TGI in assay [7] was determined as 3.46 µM; in assay [8], 7.99 µM; in [9], 4.49 µM; in [10], 2 µM.

With `C#CCOC(=O)/C=C/C(=O)Oc1ccc2c(C)cc(=O)oc2c1`, the GI50 in assay [1], in assay [2], in [3], in assay [4], in [5] and in assay [6] was > 100 µM in each case. In addition, the GI50 in assay [7], in assay [8], in assay [9] and in assay [10] was > 100 µM in each case. Further, the TGI in [1], in assay [2], in assay [3], in [4], in assay [5] and in [6] was > 100 µM in each case. Further, the TGI in assay [7], in assay [8], in assay [9] and in [10] was > 100 µM throughout.

In the case of `FC(F)(F)c1cc(NC(=S)N2c3ccccc3-n3cccc3C2c2cccnc2)cc(C(F)(F)F)c1` (stereo not given), the GI50 in assay [1] is 4.18 µM; in assay [2] it was 8.9 µM; in assay [3] it was 11 µM; in assay [4], 5.52 µM; in [5] it was 7.55 µM; in assay [6], 8.96 µM. Besides, the GI50 in [7] was 3.87 µM; in assay [8], 3.9 µM; in assay [9], 3.84 µM; in assay [10], 14.7 µM. Besides, the total growth inhibition concentration (TGI) in assay [1] came out at 18.2 µM; in [2], 32 µM; in assay [3], 35.8 µM; in assay [4] it was 21.1 µM; in assay [5], 29.9 µM; in [6], 45.7 µM. The concentration for total growth inhibition (TGI) is 21.4 µM in assay [7], 15.7 µM in assay [8], 18.7 µM in assay [9] and 37.4 µM in assay [10].

In the case of `Cc1ccc(-c2nc(/C=N/Nc3cc(C)nc4ccc(Br)cc34)c(C)o2)cc1`, the GI50 was 1.99 µM in assay [1]; 1.89 µM in assay [2]; 1.65 µM in assay [3]; 2.86 µM in assay [4]; 1.86 µM in assay [5]; 14 µM in assay [6]. Moreover, the GI50 was 1.9 µM in [7], 2.13 µM in assay [8], 2.05 µM in assay [9] and 1.72 µM in [10]. Moreover, the total growth inhibition concentration (TGI) in assay [1] is 4.46 µM; in [2] it was 3.6 µM; in assay [3], 3.22 µM; in assay [4] it was 8.8 µM; in assay [5], 3.48 µM; in [6] it was 29.3 µM. For the same compound, the TGI in assay [7] stood at 4.05 µM; in assay [8] it was 5.02 µM; in assay [9], 4.71 µM; in [10] it was 3.18 µM.

In general, GI50 refers to the concentration giving 50% growth inhibition. One may read the TGI as the concentration giving total growth inhibition.
